Experiments:
Muscarinic M3 = Muscarinic M3 (Homo sapiens, UniProt P20309); test: Eurofins Hit Profiling Screen; assay type: binding; conditions: 10 μmol/L
[1] = system: Calcium Channel L-Type, Dihydropyridine; test: Eurofins Hit Profiling Screen; assay type: binding, rat; conditions: 10 μmol/L
Native human LOX = molecular target: T1, Native human LOX (Homo sapiens, UniProt P28300); test: Amplex-Red fluorometric enzymatic activity assay, native human LOX (IMR90 conditioned medium); assay type: biochemical; conditions: 30 minute pre-incubation; average of at least three experiments
T1 construct: collecting the 30-kDa LOX in the lower molecular weight portion; host or cells: IMR90 conditioned medium
Experimental: (§1) The measurement of the enzymatic activity of all lysyl oxidase family members was based on the detection of hydrogen peroxide with an Amplex‐Red oxidation assay, as described in Zhou et al26 Recombinant human semicarbazide sensitive amine oxidase (SSAO/VAP1), diamine oxidase (DAO) and monoamine oxidases A and B (MAO‐A and MAO‐B) assays were performed as previously described.27 For detailed enzymatic procedures, see supporting information.
(§2) The measurement of the enzymatic activity of all lysyl oxidase family members was based on the detection of hydrogen peroxide with an Amplex-Red oxidation assay, as described in Zhou et al.[1]; miniaturised in 384 well format, with the appropriate combination of substrate and assay buffer for each individual enzyme. After a 30 minute pre-incubation of the enzyme at 37 °C with the test compound (or with different incubation times for the time-dependency assay), one volume of reaction mixture containing 120 μM Amplex Red (AR) (Life Technologies), 1.5 U/mL horseradish peroxidase (HRP) (Sigma-Aldrich) and the specific substrate was added to each sample. The relative fluorescence units (RFU) were then measured every 2.5 minutes for 30 minutes at 37°C, excitation 565 nm and emission 590, on a BMG Clariostar Microplate Reader. […]

Myocardial infarction = Myocardial infarction (left coronary artery occlusion); assay type: in vivo, C57/BL6 mice; conditions: 25 mg/kg q.d., p.o., 4 weeks; compared to infarcted untreated animals
Experimental: The study was performed by CL Laboratory (Baltimore, USA) with approval from the Institutional Animal Care and Use Committee. Myocardial infarction (MI) was induced in C57/BL6 mice by occluding the left coronary artery. The same surgery but without occluding the left coronary artery was used as a sham control. At 24 hours post‐surgery, animals received echocardiography. Infarcted mice with high cardiac function (FS > 40%) or low cardiac function (FS < 10%) were excluded from the study. The remaining mice were treated q.d., p.o., with 25 mg/kg of PXS‐5153A for 4 weeks. At the end of the experiment, echocardiography was performed on mice to assess left ventricular function and remodelling, followed by heart collection. The heart was fixed with 10% formalin. Fibrosis was assessed in the non‐infarct area. Fibrotic blue area and whole non‐infarct area were measured using computerized planimetry (Image J). The fibrotic area was presented as a percentage of the whole non‐infarct area. Three random fields per heart were counted, averaged and a total of 30‐45 fields per group were measured.

LOXL2 [2] = molecular target: T2, LOXL2 (Homo sapiens, UniProt Q9Y4K0); test: Amplex-Red fluorometric enzymatic activity assay, recombinant human LOXL2; assay type: biochemical; set-up: purchased R&D Systems
T2 sequence (Q9Y4K0 26-774): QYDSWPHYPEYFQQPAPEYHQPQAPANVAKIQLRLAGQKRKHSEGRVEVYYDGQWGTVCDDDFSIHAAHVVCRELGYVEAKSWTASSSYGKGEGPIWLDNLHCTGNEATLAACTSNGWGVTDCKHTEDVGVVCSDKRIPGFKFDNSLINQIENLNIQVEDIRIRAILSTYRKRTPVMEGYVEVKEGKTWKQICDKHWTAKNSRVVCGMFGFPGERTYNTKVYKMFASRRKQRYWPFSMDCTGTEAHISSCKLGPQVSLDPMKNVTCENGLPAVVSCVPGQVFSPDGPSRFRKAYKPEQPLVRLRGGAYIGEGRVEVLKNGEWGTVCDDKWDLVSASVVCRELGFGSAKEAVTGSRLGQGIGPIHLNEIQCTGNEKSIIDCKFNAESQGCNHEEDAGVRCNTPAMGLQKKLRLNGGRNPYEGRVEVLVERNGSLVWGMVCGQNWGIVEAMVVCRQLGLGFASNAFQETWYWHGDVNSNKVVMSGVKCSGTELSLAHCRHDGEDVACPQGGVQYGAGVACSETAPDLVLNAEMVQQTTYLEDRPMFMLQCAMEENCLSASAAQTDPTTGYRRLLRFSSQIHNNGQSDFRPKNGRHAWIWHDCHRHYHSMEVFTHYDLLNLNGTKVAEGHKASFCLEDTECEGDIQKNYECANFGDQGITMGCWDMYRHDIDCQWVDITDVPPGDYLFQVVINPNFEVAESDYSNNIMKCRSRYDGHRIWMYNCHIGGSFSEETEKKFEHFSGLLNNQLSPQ
Experimental: as §1
The measurement of the enzymatic activity of all lysyl oxidase family members was based on the detection of hydrogen peroxide with an Amplex-Red oxidation assay, as described in Zhou et al.[1]; miniaturised in 384 well format, with the appropriate combination of substrate and assay buffer for each individual enzyme. After a 30 minute pre-incubation of the enzyme at 37 °C with the test compound (or with different incubation times for the time-dependency assay), one volume of reaction mixture containing 120 μM Amplex Red (AR) (Life Technologies), 1.5 U/mL horseradish peroxidase (HRP) (Sigma-Aldrich) and the specific substrate was added to each sample. The relative fluorescence units (RFU) were then measured every 2.5 minutes for 30 minutes at 37°C, excitation 565 nm and emission 590, on a BMG Clariostar Microplate Reader. All the substrates were used at concentrations corresponding to their Km towards the corresponding enzyme, or with a range of different concentrations for the substrate competition experiments.
Lysyl oxidases assay buffer contained 1.2 M urea, 50 mM sodium borate buffer, pH 8.2 and 100 µM β-aminoproprionitrile (BAPN, Sigma-Aldrich) was used for low control.
Recombinant human LOXL1 was expressed and purified from cDNA (GeneArt) and 10 mM putrescine was used as substrate. Recombinant human and mouse LOXL2 (R&D Systems) were challenged with 5 mM putrescine (Sigma-Aldrich) as the substrate. Rat and dog recombinant LOXL2 were amplified and purified in house from HEK-293 clones kindly provided by Dr. Fernando Rodríguez Pascual, Madrid University, and used in the same conditions as for the human form. 2 mM putrescine was used as the substrate for recombinant human LOXL3 (R&D Systems) and LOXL4 (Dr. Fernando Rodríguez Pascual, university of Madrid, Spain) assays.

LOXL2 [3] = test: LOXL2 enzymatic activity across all mammalian species tested; assay type: biochemical
Experimental: as §1, §2

Adrenergic α1B = Adrenergic α1B (Rattus norvegicus, UniProt P15823); test: Eurofins Hit Profiling Screen; assay type: binding; conditions: 10 μmol/L
[4] = 30 minute pre-incubation at 37 °C, average of at least three experiments

T1 sequence (P28300 169-417): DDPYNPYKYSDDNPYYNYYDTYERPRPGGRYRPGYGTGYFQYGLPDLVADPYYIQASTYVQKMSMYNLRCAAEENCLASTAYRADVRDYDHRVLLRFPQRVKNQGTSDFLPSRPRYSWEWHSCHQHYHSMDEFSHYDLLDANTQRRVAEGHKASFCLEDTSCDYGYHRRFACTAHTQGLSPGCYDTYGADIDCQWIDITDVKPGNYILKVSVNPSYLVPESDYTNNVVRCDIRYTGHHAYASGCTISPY
Sequence of Adrenergic α1B (P15823 whole entry): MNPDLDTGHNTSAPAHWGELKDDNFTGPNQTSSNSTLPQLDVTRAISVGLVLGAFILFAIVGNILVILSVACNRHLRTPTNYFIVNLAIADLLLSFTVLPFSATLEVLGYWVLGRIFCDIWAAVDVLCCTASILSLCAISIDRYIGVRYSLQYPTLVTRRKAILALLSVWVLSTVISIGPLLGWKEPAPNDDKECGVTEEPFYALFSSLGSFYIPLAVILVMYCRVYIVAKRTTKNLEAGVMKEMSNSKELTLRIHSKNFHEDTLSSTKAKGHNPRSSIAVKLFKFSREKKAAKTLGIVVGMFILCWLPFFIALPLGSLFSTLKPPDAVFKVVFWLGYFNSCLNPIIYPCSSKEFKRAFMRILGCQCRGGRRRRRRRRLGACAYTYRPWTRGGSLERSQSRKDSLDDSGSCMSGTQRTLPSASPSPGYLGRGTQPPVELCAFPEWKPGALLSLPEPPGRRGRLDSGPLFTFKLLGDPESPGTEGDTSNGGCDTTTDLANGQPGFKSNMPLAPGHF
Sequence of Muscarinic M3 (P20309 whole entry): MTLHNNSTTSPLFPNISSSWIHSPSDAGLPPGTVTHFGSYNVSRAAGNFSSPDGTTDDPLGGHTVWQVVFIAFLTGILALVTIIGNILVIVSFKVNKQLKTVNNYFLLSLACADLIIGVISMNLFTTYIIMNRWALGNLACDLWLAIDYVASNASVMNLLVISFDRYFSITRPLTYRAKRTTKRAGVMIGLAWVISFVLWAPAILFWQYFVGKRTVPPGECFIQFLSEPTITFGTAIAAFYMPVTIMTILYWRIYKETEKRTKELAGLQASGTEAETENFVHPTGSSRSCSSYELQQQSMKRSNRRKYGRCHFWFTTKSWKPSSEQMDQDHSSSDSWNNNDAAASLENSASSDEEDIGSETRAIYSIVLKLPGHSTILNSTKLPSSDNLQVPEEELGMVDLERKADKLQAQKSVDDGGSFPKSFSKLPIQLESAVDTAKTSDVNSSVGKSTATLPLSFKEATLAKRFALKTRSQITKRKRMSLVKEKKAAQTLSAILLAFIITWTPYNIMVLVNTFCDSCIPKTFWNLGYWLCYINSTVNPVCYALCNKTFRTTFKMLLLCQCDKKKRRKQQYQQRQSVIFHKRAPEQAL

Cc1c(-c2cccc(S(=O)(=O)N(C)C)c2)c2ncccc2n1C/C(F)=C/CN.Cl.Cl [PXS-5153A]
% inhibition (Muscarinic M3): 9%
% inhibition [1]: 80%
IC50 (Native human LOX): 1790 nM
pIC50 ± SD (Native human LOX): 5.7 ± 0.16
ejection fraction (Myocardial infarction): improvement
fractional shortening (Myocardial infarction): improvement
percentage fibrotic coverage area (Myocardial infarction): decrease
IC50 (LOXL2 [2]; [4]): 21 nM
pIC50 ± SD (LOXL2 [2]; [4]): 7.7 ± 0.23
selectivity for LOXL2 over LOX (LOXL2 [2]; LOXL2 over LOX): > 40 fold
selectivity for LOXL2 over LOXL1 (LOXL2 [2]; LOXL2 over LOXL1): > 40 fold
selectivity over other related amine oxidases (LOXL2 [2]; LOXL2 over other related amine oxidases): > 700 fold
rate of inactivation (kinact) (LOXL2 [2]; mechanism-based irreversible inhibition, enzyme not given): 0.20 min⁻¹
Ki (LOXL2 [2]; mechanism-based irreversible inhibition, enzyme not given, read-out: apparent binding constant (Ki)): 1010 nM
IC50 (LOXL2 [3]): < 40 nM
% inhibition (Adrenergic α1B): 6%
